Data from US10517854B2, “Dosing regiments of celgosivir for the treatment of dengue” (60 Degrees Pharmaceuticals, LLC, priority 2013, dated 2019).
Like-named read-outs stand apart in the source and are kept apart here.

What was measured:
[1] = test system: DENV2 (TSV01 strain); test: Cell-based flaviviral immunodetection assay (CFI), DENV2; conditions: Dengue virus, DENV2, BHK-21, 48 h, DENV2, BHK21 cells
Method: BHK21 cells were seeded at 1.3×104 in 96-well plate and incubated overnight at 37° C. in 5% CO2 incubator. Confluent monolayer of BHK21 cells were infected with DENV2 (TSV01 strain) at an MOI (multiplicity of infection) 0.3 in the presence of various concentrations of test compounds and incubated for 1 hour at 37° C. in 5% CO2 incubator. Infected cells were incubated with test compounds for another 48 hours at 37° C. in 5A CO2. Cells were fixed with methanol and mouse monoclonal antibody 4G2 was used to detect DENV E protein, which was quantified using a secondary anti-mouse antibody conjugated with horseradish peroxidase (HRP). Absorbance was read at 450 nm and dose-response curve was plotted accordingly. The 50% effective concentration (EC50), that is, the concentration of the test compound that decreased the level of viral E protein production by 50%, was calculated by nonlinear regression analysis.

[2] = cited from earlier work; for AUCss / Cmin,ss / t1/2 / tmax: HIV-positive patients
[3] = cited from earlier work
[4] = Population PK in dengue fever patients (NONMEM, predicted NCA parameters); format: in vivo, human; conditions: 400 mg loading dose then 200 mg every 12 hours for 9 doses
Method: Population pharmacokinetic (PK) analysis of castanospermine plasma concentration data after administration of celgosivir was performed using the non-linear mixed effects modelling software NONMEM (version 7.2.0). (16) Pharmacokinetic parameters were estimated using the first order conditional estimation method (FOCE) with eta-epsilon interaction. Due to limited data during the input phase, first-order absorption/formation of castanospermine was assumed. Between-subject variability was assumed to be log-nomally distributed. Model development was guided by objective function value (OFV), precision of the parameter estimates, inspection of standard goodness of lit plots and scientific plausability. The emperical Bayes estimates from the final model were used to predict individual concentrations for a standard saturated sampling design (i.e., samples collected at 0, 0.25, 0.5, 1, 1.5, 2, 4, 6 and 12 hours post-dose)) after the first dose (400 mg) and dose 9 (day 5; 200 mg). […] The NCA parameter values were derived using the statistical analysis software R (version 3.0.1). (17) NCA parameters after dose 9 were only determined for subject who received this dose. […]

[5] = cited from earlier work
[6] = test system: DENV2 in THP-1 human monocytes; test: ADE infection of human monocytes (THP-1), plaque assay; format: cell-based; conditions: Dengue virus, THP-1, DENV2 + 4G2 antibody, 48 hours, read-out: EC50, suppression of viral replication under ADE condition
Method: The activity of celgosivir in infected human monocytes, one of the primary circulating cell types infected by dengue virus, was examined, THP-1 cells were grown in RPMI-1640 maintenance medium containing 10% fetal calf serum and 1% Penicillin-streptomycin and cultured in 37° C. incubator supplemented with 5% CO2. For ADE infection in THP-1 cells, virus (DENV2, MOI-10) was mixed with sub-neutralizing concentration of humanized 4G2 monoclonal antibody (0.05 μg/0.5 ml) and allowed to incubate on ice for 1 hr in the serum free medium, to allow immune complex formations. The immune complex was then added on to THP-1 (1×10^5) cells per well in a 24 well plate and further incubated for 2 hours at 37° C. incubator. An excess unbound immune complex was then removed by spinning cells at 1000 rpm for 5 min and then cells were supplemented with complete growth maintenance medium. For drug testing in the ADE condition, cells were mock (untreated) or celgosivir-treated for 48 hours, and finally media supernatant was collected for plaque assay analysis.

[7] = celgosivir 10 mg/day for 14 days
[8] = celgosivir 20 mg/day for 14 days
[9] = celgosivir 40 mg/day for 14 days
[10] = celgosivir 80 mg/day for 14 days
[11] = celgosivir 160 mg/day for 14 days
[12] = celgosivir 240 mg/day for 14 days
[13] = celgosivir 360 mg/day for 14 days
[14] = celgosivir 450 mg/day for 14 days
[15] = radiolabeled castanospermine, PO or IV, within 24 hr

For `O[C@H]1[C@H](O)[C@@H](O)CN2CC[C@H](O)[C@H]12` [Castanospermine], the EC50 [1] is given as roughly 21 µM, the AUCss [2, 7] is given as 1000 ng·h/mL and the “Cmin,ss” value [2, 7] is given as 8 ng/mL. For the same compound, the t1/2 [2, 7] was 13 h, the tmax [2, 7] was 0.7 h and the AUCss [2, 8] was 1750 ng·h/mL. For the same compound, the “Cmin,ss” value [2, 8] was 11 ng/mL, the t1/2 [2, 8] was 27 h and the tmax [2, 8] was 1 h. The AUCss [2, 9] was 3610 ng·h/mL, the “Cmin,ss” value [2, 9] was 23 ng/mL and the t1/2 [2, 9] was 30 h. The tmax [2, 9] was 1 h, the AUCss [2, 10] was 6530 ng·h/mL and the “Cmin,ss” value [2, 10] was 29 ng/mL. The t1/2 [2, 10] was 16 h, the tmax [2, 10] was 0.3 h and the AUCss [2, 11] was 13300 ng·h/mL. The “Cmin,ss” value [2, 11] was 70 ng/mL, the t1/2 [2, 11] was 21 h and the tmax [2, 11] was 0.8 h. For the same compound, the AUCss [2, 12] was 21500 ng·h/mL, the “Cmin,ss” value [2, 12] was 110 ng/mL and the t1/2 [2, 12] was 16 h. The tmax [2, 12] was 0.6 h, the AUCss [2, 13] was 32100 ng·h/mL and the “Cmin,ss” value [2, 13] was 179 ng/mL. For the same compound, the t1/2 [2, 13] was 15 h, the tmax [2, 13] was 0.7 h and the AUCss [2, 14] was 39800 ng·h/mL. The “Cmin,ss” value [2, 14] was 191 ng/mL, the t1/2 [2, 14] was 14 h and the excretion and metabolites ([2]; humans) was “excreted unchanged in the urine, with no other metabolites detected”. For the same compound, the gastrointestinal effects ([3]; 2 g/kg, sucrose- and starch containing diets) was “severe diarrhea and high intestinal bacterial counts”, the GI toxicity ([3]; diet of proteins, vitamins and glucose without sucrose or complex carbohydrates) was “ameliorated” and the “variability in exposure between subjects” value [4] was “small to moderate”. For the same compound, the “mean Cmax in the portal vein” value ([5]; 400 mg/kg celgosivir PO) was 105600 ng/mL, the “AUC 0-60 min” value ([5]; portal vein, 400 mg/kg celgosivir PO) was 63900 ng·h/mL and the “route of excretion of radioactivity” value [5, 15] was “majority of radioactivity was detected within urine”. For the same compound, the “urinary radioactivity identified as castanospermine” value [5, 15] was “more than 92%” and the EC50 [6] was 14 µM.
